Experimental data taken from patent US20210053957A1, “HERBICIDAL COMPOUNDS” (SYNGENTA PARTICIPATIONS AG, priority 2018, published 2021).

Key:
Assay in all cases: Post-emergence efficacy, glasshouse spray test
Format in all cases: in vivo
[1] = test system: Digitaria sanguinalis (DIGSA); settings: Application Rate 500 g/Ha, evaluated after 13 days; for pest or weed control at 500 g/ha: Digitaria sanguinalis, post-emergence, 312 h, read-out: Control of weed species after post-emergence application, DIGSA (100=total damage to plant; 0=no damage to plant)
Summary of the method: (§1)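 Herbicidal effect is given as percent damage on a 0–100 scale, assessed 13 days after spraying plants that had been cultivated 14 days post-sowing. Diluent contained 0.25% or 1% Empicol ESC70 with 1% ammonium sulphate.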

[2] = test system: Ipomoea hederacea (IPOHE); settings: Application Rate 500 g/Ha, evaluated after 13 days; for pest or weed control at 500 g/ha: Ipomoea hederacea, post-emergence, 312 h, read-out: Control of weed species after post-emergence application, IPOHE (100=total damage to plant; 0=no damage to plant)
Summary of the method: as §1

Eleusine indica (ELEIN) = settings: Application Rate 500 g/Ha, evaluated after 13 days; for pest or weed control at 500 g/ha: Eleusine indica, post-emergence, 312 h, read-out: Control of weed species after post-emergence application, ELEIN (100=total damage to plant; 0=no damage to plant)
Summary of the method: as §1

Lolium perenne (LOLPE) = settings: Application Rate 500 g/Ha, evaluated after 13 days; for pest or weed control at 500 g/ha: Lolium perenne, post-emergence, 312 h, read-out: Control of weed species after post-emergence application, LOLPE (100=total damage to plant; 0=no damage to plant)
Summary of the method: as §1

Setaia fabei (SETFA) = settings: Application Rate 500 g/Ha, evaluated after 13 days; for pest or weed control at 500 g/ha: Setaria faberi, post-emergence, 312 h, read-out: Control of weed species after post-emergence application, SETFA (100=total damage to plant; 0=no damage to plant)
Summary of the method: as §1

[3] = test system: Amaranthus palmeri (AMAPA); settings: Application Rate 500 g/Ha, evaluated after 13 days; for pest or weed control at 500 g/ha: Amaranthus palmeri, post-emergence, 312 h, read-out: Control of weed species after post-emergence application, AMAPA (100=total damage to plant; 0=no damage to plant)
Summary of the method: as §1

[4] = test system: Euphorbia heterophylla (EPHHL); settings: Application Rate 500 g/Ha, evaluated after 13 days; for pest or weed control at 500 g/ha: Euphorbia heterophylla, post-emergence, 312 h, read-out: Control of weed species after post-emergence application, EPHHL (100=total damage to plant; 0=no damage to plant)
Summary of the method: as §1

[5] = test system: Chenopodium album (CHEAL); settings: Application Rate 500 g/Ha, evaluated after 13 days; for pest or weed control at 500 g/ha: Chenopodium album, post-emergence, 312 h, read-out: Control of weed species after post-emergence application, CHEAL (100=total damage to plant; 0=no damage to plant)
Summary of the method: as §1

[6] = test system: Echinochloa crus-galli (ECHCG); settings: Application Rate 500 g/Ha, evaluated after 13 days; for pest or weed control at 500 g/ha: Echinochloa crus-galli, post-emergence, 312 h, read-out: Control of weed species after post-emergence application, ECHCG (100=total damage to plant; 0=no damage to plant)
Summary of the method: as §1

Row | Structure (SMILES) | pest or weed control at 500 g/ha [1] [%] | pest or weed control at 500 g/ha [2] [%] | pest or weed control at 500 g/ha (Eleusine indica (ELEIN)) [%] | pest or weed control at 500 g/ha (Lolium perenne (LOLPE)) [%] | pest or weed control at 500 g/ha (Setaia fabei (SETFA)) [%] | pest or weed control at 500 g/ha [3] [%] | pest or weed control at 500 g/ha [4] [%] | pest or weed control at 500 g/ha [5] [%] | pest or weed control at 500 g/ha [6] [%] | Control of weed species after post-emergence application, DIGSA (100=total damage to plant; 0=no damage to plant) [1] | Control of weed species after post-emergence application, IPOHE (100=total damage to plant; 0=no damage to plant) [2] | Control of weed species after post-emergence application, ELEIN (100=total damage to plant; 0=no damage to plant) (Eleusine indica (ELEIN)) | Control of weed species after post-emergence application, LOLPE (100=total damage to plant; 0=no damage to plant) (Lolium perenne (LOLPE)) | Control of weed species after post-emergence application, SETFA (100=total damage to plant; 0=no damage to plant) (Setaia fabei (SETFA)) | Control of weed species after post-emergence application, AMAPA (100=total damage to plant; 0=no damage to plant) [3] | Control of weed species after post-emergence application, EPHHL (100=total damage to plant; 0=no damage to plant) [4] | Control of weed species after post-emergence application, CHEAL (100=total damage to plant; 0=no damage to plant) [5] | Control of weed species after post-emergence application, ECHCG (100=total damage to plant; 0=no damage to plant) [6]
1 | Cn1nc(C(F)(F)F)cc1-c1cc[n+](CCS(=O)(=O)[O-])nc1 [Compound A30] | 30 | 20 | 40 | 50 | 40 | 80 | 40 | 40 | 20 | – | – | – | – | – | – | – | – | –
2 | COP(=O)(CCC[n+]1ccc(-c2ncco2)cn1)OC.[Br-] [Compound A76] | – | – | – | – | – | – | – | – | – | 60 | 30 | 70 | 30 | 40 | 30 | 40 | 20 | 30
3 | Cn1cnc(-c2cc[n+](CCOS(=O)(=O)[O-])nc2)n1 [Compound A118] | 90 | 30 | 70 | 40 | 90 | 50 | 70 | 30 | 90 | – | – | – | – | – | – | – | – | –
4 | CCOC(=O)CC[n+]1ccc(-c2cocn2)cn1 [Compound A20] | 60 | 10 | 50 | 10 | 20 | 40 | 10 | 20 | 30 | – | – | – | – | – | – | – | – | –
5 | O=C(O)CC[n+]1ccc(-c2ccsn2)cn1 [Compound A97] | 50 | 20 | 70 | 30 | 40 | 100 | 50 | 80 | 60 | – | – | – | – | – | – | – | – | –
6 | O=S(=O)([O-])CC[n+]1ccc(-c2ccsn2)cn1 [Compound A105] | 100 | 70 | 90 | 70 | 90 | 90 | 100 | 90 | 80 | – | – | – | – | – | – | – | – | –
7 | O=S(=O)([O-])CC[n+]1ccc(-c2ncn[nH]2)cn1 [Compound A38] | 20 | 20 | 0 | 10 | 10 | 20 | 20 | 30 | 10 | – | – | – | – | – | – | – | – | –
8 | CCOC(=O)c1oc(-c2cc[n+](CCC(=O)OC)nc2)nc1C [Compound A131] | 30 | 10 | 10 | 10 | 20 | 10 | 10 | 0 | 20 | – | – | – | – | – | – | – | – | –
9 | COC(=O)CCC[n+]1ccc(-c2nc(C)co2)cn1 [Compound A128] | 90 | 20 | 100 | 60 | 90 | 90 | 70 | 20 | 80 | – | – | – | – | – | – | – | – | –
10 | O=C(O)CC[n+]1ccc(-c2ccno2)cn1 [Compound A96] | 40 | 80 | 80 | 70 | 80 | 100 | 100 | 90 | 30 | – | – | – | – | – | – | – | – | –
11 | CCOC(=O)c1coc(-c2cc[n+](CCS(=O)(=O)O)nc2)n1 [Compound A124] | – | – | – | – | – | – | – | – | – | 90 | 40 | 80 | 40 | 70 | 90 | 90 | 30 | 40
12 | COP(=O)(O)CC[n+]1ccc(-c2ncco2)cn1 [Compound A106] | 80 | 20 | 20 | 0 | 50 | 10 | 60 | 0 | 40 | – | – | – | – | – | – | – | – | –
13 | Cc1nc(-c2cc[n+](CCS(=O)(=O)[O-])nc2)oc1C [Compound A14] | 50 | 40 | 70 | 40 | 50 | 100 | 50 | 40 | 40 | – | – | – | – | – | – | – | – | –
14 | Cn1nccc1-c1cc[n+](CCCS(=O)(=O)[O-])nc1 [Compound A4] | 30 | 10 | 10 | 0 | 20 | 10 | 40 | 30 | 20 | – | – | – | – | – | – | – | – | –
15 | Cc1nnc(-c2cc[n+](CCC(=O)O)nc2)s1 [Compound A98] | 90 | 40 | 80 | 80 | 100 | 100 | 90 | 90 | 70 | – | – | – | – | – | – | – | – | –
16 | O=C(O)CC[n+]1ccc(-c2csnn2)cn1 [Compound A139, 3-[4-(thiadiazol-4-yl)pyridazin-1-ium-1-yl]propanoic acid 2,2,2-trifluoroacetate] | 70 | 60 | 70 | 10 | 60 | 80 | 100 | 70 | 60 | – | – | – | – | – | – | – | – | –
